Experimental data published in the supplement of paper PMC6206229.
Converted amounts (≈) assume the structure as drawn.

Assays:
[1] = tested on: Staphylococcus aureus ATCC 29213 (MSSA); assay: minimum inhibitory concentration; extreme values may be limits of the assay
How it was run: (§1)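 Methicillin-susceptible and methicillin-resistant Staphylococcus aureus were assessed by broth microdilution with a resazurin read-out, compounds spanning 0 to 100 µM and incubated for 24 h at 37°C before 30 µl of 0.015% resazurin was added for 2–4 h. For the minimum inhibitory concentration, the lowest concentration whose well stayed blue rather than pink was recorded.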

[2] = tested on: Staphylococcus aureus ATCC 700699 (MRSA); assay: as above
How it was run: as §1

| SMILES | minimum inhibitory concentration [1] | minimum inhibitory concentration [2] |
| --- | --- | --- |
| Cc1ccc2nc(Cl)c(CNCc3cccs3)cc2c1 | > 50 µM | > 50 µM |
| O=C(CN1CCOCC1)Nc1ccc2ncnc(Nc3ccc(OCc4cccc(F)c4)c(Cl)c3)c2c1 | > 50 µM | > 50 µM |
| CN1CCC(NCc2cccc(-c3ccc(S(=O)(=O)NCc4ccccc4)cc3)c2)CC1 | > 50 µM | > 50 µM |
| Cc1nc(-c2ccccn2)nc(N(C)CCc2ccccc2)c1Cl | 50 µM (≈ 16.9 µg/mL) | 50 µM (≈ 16.9 µg/mL) |
| CC(C)=CCC/C(C)=C/CNCCNC1C2CC3CC(C2)CC1C3 (stereo unspecified) | 50 µM (≈ 16.5 µg/mL) | 50 µM (≈ 16.5 µg/mL) |
| CCCCc1ccc(C(=O)Nc2nccc3ccccc23)nc1 | > 50 µM | > 50 µM |
| Cc1cc2ccccc2n1CC(=O)N1CC(C(=O)N2CCCCC2)Oc2ccccc21 (stereo unspecified) | > 50 µM | > 50 µM |
| c1ccc(-c2[nH]c3ccccc3c2C(c2ccccn2)N2CCCC2)cc1 (stereo unspecified) | > 50 µM | > 50 µM |
| Cc1ccc2[nH]c3c(NCCN(C)C)ncnc3c2c1 | > 50 µM | > 50 µM |
| Nc1nc2cc(-c3cncc(Oc4ccc(F)cc4)c3)ccc2[nH]1 | 50 µM (≈ 16 µg/mL) | 50 µM (≈ 16 µg/mL) |
| Cc1nc(-c2ccccn2)nc(NCCc2ccc(S(C)(=O)=O)cc2)c1Cl | > 50 µM | > 50 µM |
| COc1ccc(-c2cnc3cnc(-c4cccc(OC(C)C)c4)cn23)cc1 | > 50 µM | > 50 µM |
| CCc1nc2ccc(C(=O)NCc3ccc4c(c3)OCO4)cn2c1N(C)Cc1cccs1 | > 50 µM | > 50 µM |
| COc1cc(-c2cc(-c3ccc(S(C)(=O)=O)cc3)cnc2N)ccc1O | > 50 µM | > 50 µM |
| CC1=Nc2ccc(Cl)cc2C(c2ccccc2)N1CCNC(=O)CN(C)C (stereo unspecified) | > 50 µM | > 50 µM |
| NCC(c1cccs1)S(=O)(=O)c1ccccc1 (stereo unspecified) | > 50 µM | > 50 µM |
| O=C(Nc1nnc(S)s1)c1cc(Br)ccc1Cl | > 50 µM | > 50 µM |
| Cc1nn(Cc2ccccc2)c(Cl)c1C(=O)NC1CCCCCC1 | > 50 µM | > 50 µM |
| CC1CCCCN1C(=O)NCCc1coc(-c2ccc(F)cc2)n1 (stereo unspecified) | > 50 µM | > 50 µM |
| Cc1nn2c(=O)c3c([nH]c2c1-c1ccc(Cl)cc1)CCCC3 | > 50 µM | > 50 µM |
| NC(=O)c1cc(-c2ccsc2)ccc1OCCOc1ccccc1 | > 50 µM | > 50 µM |
| CCc1nc2ccccc2n1CC(O)COc1cc(C)ccc1Cl (stereo unspecified) | > 50 µM | > 50 µM |
| CCc1ccccc1-n1c(C)cn2c3c(=O)n(C(C(=O)OC)C(C)C)c(=O)n(C)c3nc12 (stereo unspecified) | > 50 µM | > 50 µM |
| CC(C)C(NC(=O)Cc1cccc2ccccc12)C(=O)Nc1cccc(C#N)c1 (stereo unspecified) | > 50 µM | > 50 µM |
| COc1ccc(Oc2ccc([C@@H](C)N(C)c3ncc4c(N)nc(N)nc4n3)cc2)cc1 | > 50 µM | > 50 µM |
| Cc1c[nH]c(CCNC(=O)c2cc(-c3ccc(Cl)cc3)cs2)n1 | > 50 µM | > 50 µM |
| Nc1c2c(nc3sc4c(c13)CCCC4)CCCC2 | > 50 µM | > 50 µM |

| SMILES | minimum inhibitory concentration [1] | minimum inhibitory concentration [2] |
| --- | --- | --- |
| CC1(C)Cc2c(c(N3CCOCC3)nc3snc(Br)c23)CO1 | > 50 µM | > 50 µM |
| Clc1cccc(CO[C@H]2CCc3ccccc3[C@@H]2n2ccnn2)c1 | > 50 µM | > 50 µM |
| Cc1cc(Nc2ccncc2)n2nc(C)c(-c3ccccc3Cl)c2n1 | > 50 µM | > 50 µM |
| CC(c1cc(Cl)cc(Cl)c1)N(C)c1ncc2c(N)nc(N)nc2n1 (stereo unspecified) | 50 µM (≈ 18.2 µg/mL) | 50 µM (≈ 18.2 µg/mL) |
| CCOc1ccccc1C(=O)Nc1cccc(-c2nc3ncccn3c2C)c1 | > 50 µM | > 50 µM |
| CC(C)(C)C(O)C(Oc1ccc(-c2ccccc2)cc1)n1cncn1 (stereo unspecified) | > 50 µM | > 50 µM |
| Nc1nc(N)c2c3c(sc2n1)CN(Cc1ccccc1)CC3 | > 50 µM | > 50 µM |
| Nc1ncc(-c2ccc(C(F)(F)F)nc2)cc1-c1ccc(C(F)(F)F)nc1 | > 50 µM | > 50 µM |
| CN1CCN(S(=O)(=O)c2ccc(-c3ccc4c(Nc5ncc(Cl)cn5)ccnc4c3)cc2)CC1 | > 50 µM | > 50 µM |
| O=C(Nc1cccc(-c2ccc(NCCCN3CCCC3)nc2)c1)c1ccccc1 | > 50 µM | > 50 µM |
| O=[N+]([O-])c1cn2c(n1)OC[C@@H](OCc1ccc(OC(F)(F)F)cc1)C2 | > 50 µM | > 50 µM |
| CCCCN(CCCC)c1c(C#N)cc(S(=O)(=O)Nc2ccccc2)cc1C#N | > 50 µM | > 50 µM |
| CCOc1ccc2cc(-c3nn(C(C)(C)C)c(N)c3C(N)=O)cnc2c1 | > 50 µM | > 50 µM |
| Cc1cc(Nc2ccc(C(F)(F)F)cc2)n2ccnc2n1 | > 50 µM | > 50 µM |
| CC(C(=O)Nc1ccc2oc(-c3ccncc3)nc2c1)c1ccccc1 (stereo unspecified) | > 50 µM | > 50 µM |
| O=C(NC1CC1)c1ccc(CSCc2ccccc2Cl)o1 | > 50 µM | > 50 µM |
| CO[C@@H]1CN(c2ccc(C#CC3(O)CN4CCC3CC4)c(Cc3ccccc3)n2)C[C@H]1O (stereo partly specified) | > 50 µM | > 50 µM |
| c1ccc(Oc2ccc(-c3cncc(-c4ccc5[nH]ccc5c4)n3)cc2)cc1 | > 50 µM | > 50 µM |
| COc1ccc(C2(C(=O)Nc3ccc(Br)cc3)CCCC2)cc1 | > 50 µM | > 50 µM |
| Cc1cc(NC(=O)c2ccc(Oc3ccc(Cl)cc3O)o2)no1 | > 50 µM | 50 µM (≈ 16.7 µg/mL) |
| O=C(Nc1c(O)cccc1-c1nc2c(C(=O)O)cccc2o1)c1cc(-c2ccccc2)on1 | > 50 µM | > 50 µM |
| COc1ccc2nc(C)cc(OCC(=O)NCc3ccccc3)c2c1 | > 50 µM | > 50 µM |
| CN1CCN(CCCOc2ncc(Nc3ncc(-c4ccc(C(F)(F)F)c(F)c4)nc3C(N)=O)cn2)CC1 | > 50 µM | > 50 µM |
| c1cc(C2=NCCN2)cc(-c2cc(-c3ccc(C4=NCCN4)cc3)no2)c1 | > 50 µM | > 50 µM |
| Nc1nccc2ccc(-c3ccc4nccn4c3)cc12 | > 50 µM | > 50 µM |
| Cc1ccc2oc(-c3cc(NC(=O)Cc4ccccc4)ccc3Cl)nc2c1 | > 50 µM | > 50 µM |
